Data published in US20230263853A1, “ECTOPARASITICIDE VETERINARY COMPOSITION” (priority 2020, published 2023).

How the values were obtained:
[1] = tested on: Salmonella typhimurium (ATCC 14028); experiment: In vitro inhibition test against bacteria, Table 7; assay type: cell-based; design: key to Inhibitory Activity (stopping power thoroughness and lasting effect): +++ = best; (−) = worst; settings: B diluted by 1000 times
Description: (§1) An ectoparasiticide veterinary composition of Example 1 (labelled here as PST22) was tested in an in vitro experimental laboratory to test its efficacy against conventional antibiotics used to control harmful bacteria and fungus that cause untold harm in modern poultry producers. Leading world authorities including the World Health Organisation (WHO) have graded Antimicrobial Resistance (AMR) as a serious global health issue that threatens the prevention and treatment of an increasing range of infections.

[2] = tested on: Escherichia coli (ATCC25322); experiment: In vitro inhibition test against bacteria, Table 5; assay type: cell-based; design: key to Inhibitory Activity (stopping power thoroughness and lasting effect): +++ = best; (−) = worst; settings: B diluted by 1000 times
Description: as §1

[3] = tested on: Pseudomonas aeruginosa (ATCC 27853); experiment: In vitro inhibition test against bacteria, Table 8; assay type: cell-based; design: key to Inhibitory Activity (stopping power thoroughness and lasting effect): +++ = best; (−) = worst; settings: B diluted by 1000 times
Description: as §1

[4] = tested on: Aspergillus niger (ITDI Ref. No. 3008); experiment: In vitro inhibition test against fungi, Table 10; assay type: cell-based; design: key to Inhibitory Activity (stopping power thoroughness and lasting effect): +++ = best; (−) = worst
Description: (§2) An ectoparasiticide veterinary composition of Example 1 (labelled here as PST22) was tested in an in vitro experimental laboratory to test its efficacy against conventional antibiotics used to control harmful bacteria and fungus that cause untold harm in modern poultry producers.

[5] = tested on: Saccharomyces cerevisiae (ATCC 9763); experiment: In vitro inhibition test against fungi, Table 9; assay type: cell-based; design: key to Inhibitory Activity (stopping power thoroughness and lasting effect): +++ = best; (−) = worst
Description: as §2

[6] = tested on: Staphylococcus aureus (ATCC 6538P); experiment: In vitro inhibition test against bacteria, Table 6; assay type: cell-based; design: key to Inhibitory Activity (stopping power thoroughness and lasting effect): +++ = best; (−) = worst; settings: B diluted by 1000 times
Description: as §1

[7] = Average live weight and feed conversion of broiler birds, trial house vs control house (Example 4); assay type: in vivo; settings: at 28 days, trial house 1 ml per 1 litre drinking water 6 hours daily, control house antibiotics
Description: Two poultry houses were used in the trial: a “trial house” and a “control house”. Each house contained 37000 broiler birds.
In the trial house, the ectoparasiticide veterinary composition of Example 1 was administered each afternoon continuously for 6 hours at a dosage of 1 ml per 1 litre of clean drinking water. The control house used the farm's standard medication program involving the administration of antibiotics (Fosfomycin and enrofloxacin).
Average live weight of the birds in each house was recorded weekly for a 28 day period. At the end of the trial a feed conversion ration was identified.

red mite = experiment: Weekly mortality in broiler houses with red mite, trial house vs control house (Example 3); assay type: in vivo, Dermanyssus gallinae; settings: poultry, over the 28 day period; trial house 4 ml per 10 litres water, control house standard antibiotics
Description: Two broiler houses of poultry were used in the trial, a first “trial house” and a second “control house”. Mortality was recorded weekly to determine the red mite impact on the poultry.
In the trial house, the ectoparasiticide veterinary composition of Example 1 was administered to chickens via the in-line water system at a dose of 4 ml per 10 litres of clean water. The control house used the farm's standard medication program involving the administration of antibiotics (Fosfomycin and enrofloxacin). Flock performance monitoring (measuring the number of mortalities not including the standard cull numbers) was recorded weekly in each house over a 28 day period.

[8] = A undiluted (10 mm), Amikacin 30 ug (8 mm)
[9] = A undiluted (10 mm), Amikacin 30 ug (6 mm)
[10] = A pure (10 mm), B 1 ml/L (10 mm), Clotrimazole (10 mm)
[11] = PST22 - B 1 ml/L (10 mm), Nystatin (10 mm)
[12] = A undiluted (10 mm), Oxacillin 1 ug (6 mm)

Compound: NCC[C@H](O)C(=O)N[C@@H]1C[C@H](N)[C@@H](O[C@H]2O[C@H](CN)[C@@H](O)[C@H](O)[C@H]2O)[C@H](O)[C@H]1O[C@H]1O[C@H](CO)[C@@H](O)[C@H](N)[C@H]1O [Amikacin]
- Average of 3× trials Reactivity Killing Power [1, 8]: 16.30 mm
- Trial 1 [1, 8]: 16.12 mm
- Trial 2 [1, 8]: 16.26 mm
- Trial 3 [1, 8]: 16.52 mm
- Inhibitory Activity (stopping power thoroughness and lasting effect) ([1]; A undiluted, Amikacin 30 ug): +++
- Average of 3× trials Reactivity Killing Power [2, 9]: 16.24 mm
- Trial 1 [2, 9]: 16.20 mm
- Trial 2 [2, 9]: 16.39 mm
- Trial 3 [2, 9]: 16.12 mm
- Inhibitory Activity (stopping power thoroughness and lasting effect) ([2]; A undiluted, Amikacin 30 ug): +++
- Average of 3× trials Reactivity Killing Power [3, 8]: 17.33 mm
- Trial 1 [3, 8]: 17.89 mm
- Trial 2 [3, 8]: 17.08 mm
- Trial 3 [3, 8]: 17.02 mm
- Inhibitory Activity (stopping power thoroughness and lasting effect) ([3]; A undiluted, Amikacin 30 ug): +++

Compound: Clc1ccccc1C(c1ccccc1)(c1ccccc1)n1ccnc1 [Clotrimazole]
- Average of 3× trials (larger the better) Reactivity killing power [4, 10]: 16.06 mm
- Trial 1 [4, 10]: 15.80 mm
- Trial 2 [4, 10]: 16.20 mm
- Trial 3 [4, 10]: 16.18 mm
- Inhibitory Activity (stopping power thoroughness and lasting effect) ([4]; A pure, B 1 ml/L, Clotrimazole): +++

Compound: C[C@@H]1[C@H](O)[C@@H](C)/C=C/C=C/CC/C=C/C=C/C=C/C=C/C(O[C@H]2O[C@H](C)[C@@H](O)[C@H](N)[C@@H]2O)CC2O[C@](O)(CC(O)C(O)CCC(O)CC(O)CC(O)CC(=O)O[C@H]1C)CC(O)C2C(=O)O (stereo partly drawn) [Nystatin]
- Average of 3× trials Reactivity Killing Power [5, 11]: 4 mm
- Total Mean Zone of Inhibition [5, 11]: 21.58 mm
- Trail 2 [5, 11]: 21.30 mm
- Trial 1 [5, 11]: 21.28 mm
- Trial 3 [5, 11]: 22.17 mm
- Inhibitory Activity (stopping power thoroughness and lasting effect) ([5]; PST22 - B 1 ml/L, Nystatin): +++

Compound: Cc1onc(-c2ccccc2)c1C(=O)N[C@@H]1C(=O)N2[C@@H]1SC(C)(C)[C@@H]2C(=O)O [Oxacillin]
- Average of 3× trials Reactivity Killing Power [6, 12]: 21.25 mm
- Trial 1 [6, 12]: 22.82 mm
- Trial 2 [6, 12]: 20.20 mm
- Trial 3 [6, 12]: 20.72 mm
- Inhibitory Activity (stopping power thoroughness and lasting effect) ([6]; A undiluted, Oxacillin 1 ug): +++

Compound: Fosfomycin and enrofloxacin
- final average live weight [7]: 1370 g
- mortality % (red mite): 5%
